Measurements from ChEMBL document CHEMBL5727836, “Treatment of infectious diseases with glucose uptake inhibitors” (2020).

Assay: ATP Assay: HT1080 cells (as well as other cell types) were plated to confluency in 96-well plates. Cells were exposed to the combination of 10 μM Oligomycin (to block mitochondrial-derived ATP), and the glucose uptake inhibitor compounds for one-hour, after which glycolytically-dervied ATP was measured with the Cell Titer-Glo assay kit (Promega). Dose-response curves of the glucose uptake inhibitor compounds were used to determine the IC50 for GLUT activity.
Settings: HT-1080, 1 h

Row | SMILES | IC50
1 | O=C(COc1cccc(-c2nc3c(c(Nc4ccc(-c5cn[nH]c5)cc4)n2)COCC3)c1)NC1CCCC1 | in the range around 55 nM
2 | CC(C)CNC(=O)COc1cccc(-c2nc(Nc3ccc(-c4cn[nH]c4)cc3)c3ncccc3n2)c1 | in the range around 175 nM
3 | CC(C)(C)NC(=O)COc1cccc(-c2nc(Nc3ccc(-c4cn[nH]c4)cc3)c3cnccc3n2)c1 | in the range around 55 nM
4 | CC(=O)N1CCc2nc(-c3cccc(OCC(=O)NC(C)C)c3)nc(Nc3ccc(-c4cn[nH]c4)cc3)c2C1 | in the range around 175 nM
5 | CC(C)CNC(=O)COc1cccc(-c2nc(Nc3ccc(-c4cn[nH]c4)cc3)c3ncsc3n2)c1 | in the range around 375 nM
6 | CCC(CC)NC(=O)COc1cccc(-c2nc3c(c(Nc4ccc(-c5cn[nH]c5)cc4)n2)CN(C(C)=O)C3)c1 | in the range around 55 nM
7 | CCC(CC)NC(=O)COc1cccc(-c2nc3c(c(Nc4ccc(-c5cn[nH]c5)cc4)n2)CN(C(C)=O)CC3)c1 | in the range around 55 nM
8 | CC(=O)N1CCc2nc(-c3cccc(OCC(=O)NCC(C)C)c3)nc(Nc3ccc(-c4cn[nH]c4)cc3)c2C1 | in the range around 55 nM
9 | Cn1cnc2c(Nc3ccc(-c4cn[nH]c4)cc3)nc(-c3cccc(OCC(=O)NC4CCC4)c3)nc21 | in the range around 375 nM
10 | O=C(COc1cccc(-c2nc3c(c(Nc4ccc(-c5cn[nH]c5)cc4)n2)COCC3)c1)NC1CCC1 | in the range around 55 nM
11 | CC(C)NC(=O)COc1cccc(-c2nc(Nc3ccc(-c4cn[nH]c4)cc3)c3ncsc3n2)c1 | in the range around 375 nM
12 | CC(C)CNC(=O)COc1cccc(-c2nc3c(c(Nc4ccc(-c5cn[nH]c5)cc4)n2)COC3)c1 | in the range around 55 nM
13 | CC(C)CNC(=O)COc1cccc(-c2nc(Nc3ccc(-c4cn[nH]c4)cc3)c3cnn(C)c3n2)c1 | in the range around 175 nM
14 | CC(=O)N1CCc2nc(-c3cccc(OCC(=O)NC4CCCC4)c3)nc(Nc3ccc(-c4cn[nH]c4)cc3)c2C1 | in the range around 55 nM
15 | O=C(COc1cccc(-c2nc(Nc3ccc(-c4cn[nH]c4)cc3)c3sccc3n2)c1)NC1CCC1 | in the range around 175 nM
16 | Cn1ncc2c(Nc3ccc(-c4cn[nH]c4)cc3)nc(-c3cccc(OCC(=O)NC4CCC4)c3)nc21 | in the range around 375 nM
17 | CC(=O)N1Cc2nc(-c3cccc(OCC(=O)NC(C)C)c3)nc(Nc3ccc(-c4cn[nH]c4)cc3)c2C1 | in the range around 175 nM
18 | CCC(C)(C)NC(=O)COc1cccc(-c2nc(Nc3ccc(-c4cn[nH]c4)cc3)c3sccc3n2)c1 | in the range around 175 nM
19 | CC(C)NC(=O)COc1cccc(-c2nc3c(c(Nc4ccc(-c5cn[nH]c5)cc4)n2)CN(C(=O)C(C)C)CC3)c1 | in the range around 55 nM
20 | CC(C)NC(=O)COc1cccc(-c2nc(Nc3ccc4[nH]ncc4c3)c3sccc3n2)c1 | in the range around 55 nM
21 | CC(C)(C)CNC(=O)COc1cccc(-c2nc3c(c(Nc4ccc(-c5cn[nH]c5)cc4)n2)COCC3)c1 | in the range around 55 nM
22 | CC(C)NC(=O)COc1cccc(-c2nc(Nc3ccc(-c4cn[nH]c4)cc3)c3cnccc3n2)c1 | in the range around 55 nM
23 | CCC(C)NC(=O)COc1cccc(-c2nc3c(c(Nc4ccc(-c5cn[nH]c5)cc4)n2)COCC3)c1 (stereo not drawn) | in the range around 55 nM
24 | O=C(COc1cccc(-c2nc3c(c(Nc4ccc(-c5cn[nH]c5)cc4)n2)COC3)c1)NC1CC(F)(F)C1 | in the range around 175 nM

Row | SMILES | IC50
25 | O=C(COc1cccc(-c2nc(Nc3ccc(-c4cn[nH]c4)cc3)c3ccncc3n2)c1)NC1CCCC1 | in the range around 55 nM
26 | CC(C)(C)NC(=O)COc1cccc(-c2nc(Nc3ccc(-c4cn[nH]c4)cc3)c3sccc3n2)c1 | in the range around 175 nM
27 | O=C(COc1cccc(-c2nc3c(c(Nc4ccc(-c5cn[nH]c5)cc4)n2)CSC3)c1)NC1CCC1 | in the range around 175 nM
28 | CC(C)NC(=O)COc1cccc(-c2nc(Nc3ccc(-c4cn[nH]c4)cc3)c3cnn(C)c3n2)c1 | in the range around 375 nM
29 | O=C(COc1cccc(-c2nc3c(c(Nc4ccc(-c5cn[nH]c5)cc4)n2)CSC3)c1)NC1CCCC1 | in the range around 175 nM
30 | CC(=O)N1Cc2nc(-c3cccc(OCC(=O)NC(C)(C)C)c3)nc(Nc3ccc(-c4cn[nH]c4)cc3)c2C1 | in the range around 55 nM
31 | O=C(COc1cccc(-c2nc(Nc3ccc(-c4cn[nH]c4)cc3)c3ncsc3n2)c1)NC1CCC1 | in the range around 375 nM
32 | CC(C)NC(=O)COc1cccc(-c2nc3c(c(Nc4ccc(-c5cn[nH]c5)cc4)n2)CSC3)c1 | in the range around 375 nM
33 | O=C(COc1cccc(-c2nc(Nc3ccc(-c4cn[nH]c4)cc3)c3sccc3n2)c1)NC1CC1 | 750 nM
34 | O=C(COc1cccc(-c2nc(Nc3ccc(-c4cn[nH]c4)cc3)c3occc3n2)c1)NC1CCC1 | in the range around 375 nM
35 | CC(C)(C)NC(=O)COc1cccc(-c2nc3c(c(Nc4ccc(-c5cn[nH]c5)cc4)n2)COC3)c1 | in the range around 55 nM
36 | O=C(COc1cccc(-c2nc(Nc3ccc(-c4cn[nH]c4)cc3)c3sccc3n2)c1)NC1CCCC1 | in the range around 55 nM
37 | O=C(COc1cccc(-c2nc(Nc3ccc(-c4cn[nH]c4)cc3)c3ccncc3n2)c1)NC1CCC1 | in the range around 55 nM
38 | CCC(CC)NC(=O)COc1cccc(-c2nc3c(c(Nc4ccc(-c5cn[nH]c5)cc4)n2)COC3)c1 | in the range around 55 nM
39 | CC(C)NC(=O)COc1cccc(-c2nc(Nc3ccc(-c4cn[nH]c4)cc3)c3ccncc3n2)c1 | in the range around 55 nM
40 | CCC(C)NC(=O)COc1cccc(-c2nc3c(c(Nc4ccc(-c5cn[nH]c5)cc4)n2)COC3)c1 (stereo not drawn) | in the range around 55 nM
41 | O=C(COc1cccc(-c2nc(Nc3ccc(-c4cn[nH]c4)cc3)c3occc3n2)c1)NC1CCCC1 | in the range around 375 nM
42 | CC(C)CNC(=O)COc1cccc(-c2nc3c(c(Nc4ccc(-c5cn[nH]c5)cc4)n2)COCC3)c1 | in the range around 55 nM
43 | CC(C)(C)CNC(=O)COc1cccc(-c2nc3c(c(Nc4ccc(-c5cn[nH]c5)cc4)n2)COC3)c1 | in the range around 55 nM
44 | CC(C)NC(=O)COc1cccc(-c2nc3c(c(Nc4ccc(-c5cn[nH]c5)cc4)n2)COCC3)c1 | in the range around 55 nM
45 | O=C(COc1cccc(-c2nc(Nc3ccc(-c4cn[nH]c4)cc3)c3ncsc3n2)c1)NC1CCCC1 | in the range around 175 nM
46 | O=C(CN1CCOCC1)Nc1cccc(-c2nc(Nc3ccc(-c4cn[nH]c4)cc3)c3ccsc3n2)c1 | in the range around 175 nM
47 | Cn1ncc2c(Nc3ccc(-c4cn[nH]c4)cc3)nc(-c3cccc(OCC(=O)NC4CCCC4)c3)nc21 | in the range around 175 nM
48 | CC(=O)N1CCc2nc(-c3cccc(OCC(=O)NC(C)(C)C)c3)nc(Nc3ccc(-c4cn[nH]c4)cc3)c2C1 | in the range around 55 nM
